# Tests used:
# γδ T cells [1] = assay: γδ T cell proliferation rate and viability in PBMC culture depending on finasteride treatment period (Example 4); format: cell-based, human
# Method: Peripheral blood mononuclear cells (PBMC) were isolated from healthy donors and were cultured for a total of 14 days by continuous treatment with 10 nM finasteride as the active ingredient for each period until day 7, day 10, and day 14 from the start date of culture, in addition to the basic culture components for γδ T cells (3 μM zoledronic acid and 10^3 IU/ml IL-2), and the activation and proliferation rates of γδ T cells were compared. The frozen peripheral blood mononuclear cells were thawed in a constant temperature water bath at 37° C. and then suspended in 9 ml of OpTmizer medium (cOpTmizer, Thermo-Fisher Scientific, USA) containing 10% fetal bovine serum (FBS). The number of cells was measured, followed by centrifugation at 400×g and 25° C. for 4 minutes. The cell pellets obtained by centrifugation were suspended in 5 ml of cOpTmizer medium (Thermo-Fisher Scientific, USA) and the number of cells was measured, after which the cells were diluted with cOpTmizer medium to a concentration of 1.0×10^6 cells/ml. A total of 1.0×10^6 cells was dispensed at 1 ml per well in a 24-well plate. To stimulate and induce differentiation of γδ T cells, 10 nM finasteride, 3 μM zoledronic acid (ZA), and 100 μl of IL-2 (10^3 IU/ml) were added, followed by culture in a CO2 incubator at 37° C. for 4 days. 4 days after the start of culture, the aggregated cells were resuspended using a 1000P micropipette, and the same amount of cOpTmizer culture medium based on the cell culture fluid in culture and 10 nM finasteride and IL-2 (10^3 IU/ml) for re-induction were further added, followed by culture in a CO2 incubator at 37° C. 5 days after the start of culture, the aggregated cells were resuspended using a 1000P micropipette and the number of cells was measured. 10 nM finasteride and IL-2 (10^3 IU/ml) were further added to the same amount of cOpTmizer culture medium based on the cell culture fluid in culture, followed by culture in a CO2 incubator at 37° C. The next day, 10 nM finasteride and IL-2 (10^3 IU/ml) were further added to half of the cOpTmizer culture medium based on the cell culture fluid in culture, followed by culture in a CO2 incubator at 37° C. 7 days after the start of culture, the aggregated cells were resuspended using a 1000P micropipette or a 10 ml serological pipette and the number of cells was measured. The cells were diluted with cOpTmizer culture medium to a concentration of 0.4×10^6 cells/ml based on the cells in culture, after which 10 nM finasteride and IL-2 (10^3 IU/ml) were added to the additional cOpTmizer culture medium, followed by culture in a CO2 incubator at 37° C. for 3 days. 10 days after the start of culture, the aggregated cells were resuspended using a 1000P micropipette or a 10 ml serological pipette and the number of cells was measured. The cells were diluted with cOpTmizer culture medium to a concentration of 0.4×10^6 cells/ml based on the cells in culture, after which 10 nM finasteride and IL-2 (10^3 IU/ml) were added to the additional cOpTmizer culture medium, followed by culture in a CO2 incubator at 37° C. On day 12 after the start of the culture, the same amount of cOpTmizer culture medium based on the cell culture fluid in culture, 10 nM finasteride, and IL-2 (10^3 IU/ml) were added, followed by culture in a CO2 incubator at 37° C. 14 days after the start of culture, the aggregated cells were resuspended using a 1000P micropipette or a 10 ml serological pipette and the number of cells was measured. […]
# γδ T cells [2] = assay: γδ T cell proliferation rate and viability in PBMC culture depending on finasteride concentration (Example 1); format: cell-based, human; conditions: for γδ T cell proliferation rate increase compared to control (IL-2 and ZA): PBMC from donor, 14-day culture; for proliferation rate of γδ T cells compared to control (in words): 14 days
# Method: For 100 cc of blood from a healthy donor collected by a medical professional and placed in a heparin tube, 25 ml of 1×DPBS and 25 ml of the blood were placed in four 50 ml conical tubes. 15 ml of Lymphoprep (Axis Shield, UK) was vertically dispensed into a new 50 ml conical tube carefully to avoid contacting the wall as much as possible, and the diluted blood was slowly added to the top of the 50 ml conical tube containing the Lymphoprep solution along the wall. The conical tube was placed in a centrifuge and centrifuged at 800×g (1,890 rpm) for 20 minutes at room temperature. In the separated four blood layers, the white buffy coat layer between Lymphoprep and plasma layers was collected, transferred to new 50 ml conical tubes (three or four), and centrifuged at 1,500 rpm (500×g) for 10 minutes at room temperature. The cells divided into three or four 50 ml conical tubes were resuspended in 45 ml of 1×DPBS and then collected into one 50 ml conical tube. The cells collected in one tube were centrifuged a total of two times at 1,250 rpm (350×g) for 10 minutes at room temperature. A culture medium was added to a stock of 1.0×10^7 cells to a final volume of 10 ml so that the cell concentration was 1.0×10^6 cells/ml, followed by pipetting two or three times, after which 1.0 ml of the cells was dispensed as day 0 samples to proceed with culture, and the remaining cells were dispensed at 1.0×10^7 cells into frozen vials, stored frozen in a nitrogen tank (LN2 tank), and used by thawing as necessary. The peripheral blood mononuclear cells (PBMC) isolated in 1-1 were continuously treated with 3 μM zoledronic acid and 10^3 IU/ml IL-2 as basic culture components for γδ T cells and with 0.01 nM and 10 nM finasteride as an active ingredient, followed by culture for a total of 14 days, and the activation and proliferation rates of γδ T cells were compared. The frozen peripheral blood mononuclear cells were thawed in a constant temperature water bath at 37° C. and then suspended in 9 ml of OpTmizer medium (Thermo-Fisher Scientific, USA) containing 10% heat inactivated fetal bovine serum (FBS, Gibco, USA). The number of cells was measured, followed by centrifugation at 400×g and 25° C. for 4 minutes. The cell pellets obtained by centrifugation were suspended in 5 ml of complete OpTmizer medium (10% fetal bovine serum+OpTmizer medium, cOpTmizer) and the number of cells was measured, after which the cells were diluted with cOpTmizer medium to a concentration of 1.0×10^6 cells/ml. […] After 2 days of re-induction, the aggregated cells were resuspended using a 1000P micropipette and the number of cells was measured. […] 7 days after the start of culture, the aggregated cells were resuspended using a 1000P micropipette or a 10 ml serological pipette and the number of cells was measured. […]
# [3] = 10 nM finasteride continuously until day 7, 14-day culture, FIG. 9
smiles,measurement,setting,value
CC(C)(C)NC(=O)[C@H]1CC[C@H]2[C@@H]3CC[C@H]4NC(=O)C=C[C@]4(C)[C@H]3CC[C@]12C [Finasteride],γδ T cell proliferation rate increase compared to control group,γδ T cells [1]; [3],about 1.5 times
same,γδ T cell proliferation rate increase compared to group treated continuously until day 10 or 14,γδ T cells [1]; [3],at least 1.1 times
same,cell viability compared to control group,γδ T cells [1]; continuous treatment with high concentration (10 nM) of finasteride,no significant difference
same,proportion of γδ T cells,γδ T cells [1]; cultured for 7 days,about 70%
same,proportion of γδ T cells,γδ T cells [1]; cultured for 10 days,≥ 90%
same,γδ T cell proliferation rate increase compared to control (IL-2 and ZA),γδ T cells [2]; 0.01 nM finasteride,1.15 times increase
same,γδ T cell proliferation rate increase compared to control (IL-2 and ZA),γδ T cells [2]; 10 nM finasteride,1.35 times increase
same,proliferation rate of γδ T cells compared to control (in words),"γδ T cells [2]; female donors, low concentration of finasteride (0.01 nM), FIG. 2",increased
same,proliferation rate of γδ T cells compared to control (in words),"γδ T cells [2]; male donors, high concentration of finasteride (10 nM), FIG. 1",increased

# Source: patent US20250075180A1, “METHOD FOR EXPANSION CULTURE OF GAMMA-DELTA T CELL” (IMMUNOMAX CO., LTD., priority 2022, published 2025)
